From patent publication US8008484B2 (priority 2004, dated 2011)

Experiments:
[1] = tested on: Paddy rice (variety: KOSIHIKARI); details: foliar spray, 500 ppm
[2] = tested on: Cucumber (variety: SAGAMI HANPAKU); assay: Phytotoxicity studied in the Botrytis cinerea foliage test; type: in vivo; details: cucumber seedlings, foliar spray, 500 ppm
Procedure: Cucumber (variety: SAGAMI HANPAKU) was cultivated in a plastic pot of 4 cm diameter. A diluted solution of an active compound of the prescribed concentration, prepared in a similar manner as in the above-mentioned Test Example 1, was sprayed to seedlings reached to cotyledon in an amount of 6 ml per 2 pots. One day after the spraying, an inoculant, prepared by mixing a suspension of artificially cultured spores of Botrytis cinerea and agar gel (2×10^4 spores/ml gel), was placed on cotyledons to inoculate and infected in a moisture box kept at 20° C. Four days after the inoculation, the contraction rate per cotyledon was classified and evaluated according to the following standard to obtain the controlling value (%). Phytotoxicity was also studied at the same time. This test is an average of the results of 2 sections 4 cotyledons.

SMILES: COC(=O)N(c1c(Cl)cccc1Cc1nc(OC)cc(OC)n1)S(=O)(=O)C(F)F [Compound 2-32]
- Phytotoxicity [1]: No phytotoxicity was observed

SMILES: COc1cc(OC)nc(C(O)c2cccc(F)c2NS(=O)(=O)C(F)F)n1 (stereo not shown) [Compound 18-25]
- Phytotoxicity [2]: No phytotoxicity was observed

SMILES: COc1cc(OC)nc(C(O)c2ccc(F)c(C)c2NS(=O)(=O)C(F)F)n1 (racemic) [Compound 4-184]
- Phytotoxicity [1]: No phytotoxicity was observed

SMILES: COc1cc(OC)nc(Cc2ccccc2NS(=O)(=O)C(F)F)n1 [Compound 2-1]
- Phytotoxicity [2]: No phytotoxicity was observed

SMILES: COc1cc(OC)nc(C(O)c2cc(C)cc(F)c2NS(=O)(=O)C(F)F)n1 (racemic) [Compound 4-107]
- Phytotoxicity [2]: No phytotoxicity was observed

SMILES: COc1cc(OC)nc(C(Cl)c2cccc(F)c2NS(=O)(=O)C(F)(F)F)n1 (stereo not shown) [Compound 12-127]
- Phytotoxicity [1]: No phytotoxicity was observed

SMILES: COc1cc(OC)nc(Cc2cccc(Cl)c2N(C(=O)C2CC2)S(=O)(=O)C(F)F)n1 [Compound 2-191]
- Phytotoxicity [1]: No phytotoxicity was observed
- Phytotoxicity [2]: No phytotoxicity was observed

SMILES: COc1cc(OC)nc(C(O)c2cccc(F)c2NS(=O)(=O)C(F)(F)F)n1 (stereo not shown) [Compound 18-21]
- Phytotoxicity [1]: No phytotoxicity was observed

SMILES: COc1nc(OC)nc(C(O)c2cccc(F)c2NS(=O)(=O)C(F)F)n1 (stereo not shown) [Compound 18-51]
- Phytotoxicity [2]: No phytotoxicity was observed

SMILES: COc1cc(OC)nc(C(O)c2ccc(F)c(C)c2NS(=O)(=O)CC(F)(F)F)n1 (racemic) [Compound 12-137]
- Phytotoxicity [1]: No phytotoxicity was observed

SMILES: COc1cc(OC)nc(C(O)c2cc(C)cc(F)c2NS(=O)(=O)CC(F)(F)F)n1 (racemic) [Compound 12-131]
- Phytotoxicity [1]: No phytotoxicity was observed

SMILES: COc1cc(OC)nc(C(SC)c2cccc(F)c2NS(=O)(=O)C(F)F)n1 (stereo not shown) [Compound 1-14]
- Phytotoxicity [2]: No phytotoxicity was observed

SMILES: COc1cc(OC)nc(C(O)c2ccc(C)c(C)c2NS(=O)(=O)C(F)F)n1 (racemic) [Compound 4-187]
- Phytotoxicity [2]: No phytotoxicity was observed

SMILES: COc1cc(OC)nc(C(=O)c2cccc(Cl)c2NS(=O)(=O)C(F)F)n1 [Compound 9-26]
- Phytotoxicity [2]: No phytotoxicity was observed

SMILES: COc1cc(OC)nc(C(O)c2ccccc2NS(=O)(=O)C(F)(F)F)n1 (stereo not shown) [Compound 18-20]
- Phytotoxicity [2]: No phytotoxicity was observed

SMILES: COc1cc(OC)nc(C(O)c2cc(C)cc(Cl)c2NS(=O)(=O)C(F)F)n1 (racemic) [Compound 4-130]
- Phytotoxicity [1]: No phytotoxicity was observed
- Phytotoxicity [2]: No phytotoxicity was observed

SMILES: COc1nc(OC)nc(C(=O)c2ccccc2NS(=O)(=O)C(F)F)n1 [Compound 9-48]
- Phytotoxicity [2]: No phytotoxicity was observed

SMILES: COc1cc(OC)nc(Cc2ccccc2NS(=O)(=O)C(F)(F)F)n1 [Compound 14-2]
- Phytotoxicity [2]: No phytotoxicity was observed

SMILES: COc1cc(OC)nc(Cc2cccc(F)c2N(C(C)=O)S(=O)(=O)C(F)F)n1 [Compound 2-18]
- Phytotoxicity [2]: No phytotoxicity was observed

SMILES: COc1cc(OC)nc(Cc2cc(C)cc(C)c2NS(=O)(=O)C(F)F)n1 [Compound 2-192]
- Phytotoxicity [2]: No phytotoxicity was observed

SMILES: COc1cc(OC)nc(Cc2cccc(Cl)c2NS(=O)(=O)C(F)F)n1 [Compound 14-35]
- Phytotoxicity [2]: No phytotoxicity was observed

SMILES: COc1cc(OC)nc(Cc2ccc(F)c(C)c2NS(=O)(=O)C(F)F)n1 [Compound 2-193]
- Phytotoxicity [1]: No phytotoxicity was observed

SMILES: COc1cc(OC)nc(Cc2c(Cl)ccc(Cl)c2NS(=O)(=O)C(F)F)n1 [Compound 2-138]
- Phytotoxicity [2]: No phytotoxicity was observed

SMILES: COc1nc(OC)nc(C(O)c2cccc(C)c2NS(=O)(=O)C(F)F)n1 (stereo not shown) [Compound 18-53]
- Phytotoxicity [1]: No phytotoxicity was observed

SMILES: COc1cc(OC)nc(Cc2ccc(F)c(C)c2NS(=O)(=O)CC(F)(F)F)n1 [Compound 13-8]
- Phytotoxicity [2]: No phytotoxicity was observed

SMILES: COc1cc(OC)nc(Cc2cc(C)c(F)cc2NS(=O)(=O)C(F)F)n1 [Compound 2-190]
- Phytotoxicity [1]: No phytotoxicity was observed

SMILES: COCc1c(F)ccc(Cc2nc(OC)cc(OC)n2)c1NS(=O)(=O)C(F)F [Compound 14-40]
- Phytotoxicity [2]: No phytotoxicity was observed

SMILES: COc1cc(OC)nc(Cc2cc(F)c(Cl)c(F)c2NS(=O)(=O)C(F)F)n1 [Compound 2-125]
- Phytotoxicity [1]: No phytotoxicity was observed

SMILES: COc1cc(OC)nc(Cc2cccc(F)c2NS(=O)(=O)CCl)n1 [Compound 14-8]
- Phytotoxicity [2]: No phytotoxicity was observed

SMILES: COc1cc(OC)nc(C(O)c2cccc(F)c2NS(C)(=O)=O)n1 (stereo not shown) [Compound 18-2]
- Phytotoxicity [1]: No phytotoxicity was observed

SMILES: COc1cc(OC)nc(Cc2cccc(Cl)c2NS(=O)(=O)CC(F)(F)F)n1 [Compound 14-22]
- Phytotoxicity [2]: No phytotoxicity was observed

SMILES: COc1cc(OC)nc(C(=O)c2cccc(F)c2NS(=O)(=O)C(F)F)n1 [Compound 9-25]
- Phytotoxicity [2]: No phytotoxicity was observed

SMILES: COc1cc(OC)nc(Cc2cccc(Cl)c2NS(=O)(=O)C(F)(F)F)n1 [Compound 14-20]
- Phytotoxicity [2]: No phytotoxicity was observed

SMILES: COc1cc(OC)nc(Cc2cc(F)ccc2NS(=O)(=O)C(F)F)n1 [Compound 2-62]
- Phytotoxicity [1]: No phytotoxicity was observed

SMILES: COc1cc(OC)nc(Cc2ccc(F)c(F)c2NS(=O)(=O)C(F)F)n1 [Compound 2-110]
- Phytotoxicity [2]: No phytotoxicity was observed

SMILES: COc1cc(OC)nc(Cc2ccc(F)cc2NS(=O)(=O)C(F)F)n1 [Compound 2-61]
- Phytotoxicity [1]: No phytotoxicity was observed

SMILES: COc1cc(OC)nc(C(O)c2ccc(F)cc2NS(=O)(=O)C(F)F)n1 (racemic) [Compound 4-186]
- Phytotoxicity [2]: No phytotoxicity was observed

SMILES: COc1cc(OC)nc(C(O)c2cccc(F)c2NS(=O)(=O)CCl)n1 (stereo not shown) [Compound 18-6]
- Phytotoxicity [1]: No phytotoxicity was observed
- Phytotoxicity [2]: No phytotoxicity was observed

SMILES: COc1cc(OC)nc(Cc2cccc(C)c2NS(=O)(=O)C(F)F)n1 [Compound 14-37]
- Phytotoxicity [1]: No phytotoxicity was observed
- Phytotoxicity [2]: No phytotoxicity was observed

SMILES: COc1cc(OC)nc(C(O)c2cccc(F)c2NS(=O)(=O)CC(F)(F)F)n1 (stereo not shown) [Compound 18-10]
- Phytotoxicity [1]: No phytotoxicity was observed
- Phytotoxicity [2]: No phytotoxicity was observed

SMILES: COc1cc(OC)nc(C(=O)c2cccc(Cl)c2N(C(C)=O)S(=O)(=O)C(F)F)n1 [Compound 3-22]
- Phytotoxicity [1]: No phytotoxicity was observed

SMILES: COc1cc(OC)nc(Cc2cccc(Cl)c2N(C(C)=O)S(=O)(=O)C(F)F)n1 [Compound 2-31]
- Phytotoxicity [1]: No phytotoxicity was observed
- Phytotoxicity [2]: No phytotoxicity was observed

SMILES: COc1cc(OC)nc(C(O)c2cccc(Cl)c2NS(=O)(=O)C(F)F)n1 (stereo not shown) [Compound 18-26]
- Phytotoxicity [2]: No phytotoxicity was observed

SMILES: COc1cc(OC)nc(C(O)c2ccccc2NS(=O)(=O)C(F)F)n1 (stereo not shown) [Compound 18-24]
- Phytotoxicity [1]: No phytotoxicity was observed
- Phytotoxicity [2]: No phytotoxicity was observed

SMILES: COc1cc(OC)nc(Cc2cccc(F)c2NS(=O)(=O)C(Cl)Cl)n1 [Compound 12-136]
- Phytotoxicity [2]: No phytotoxicity was observed
